In patent US20250221991A1, “COMBINATION THERAPY FOR THE TREATMENT OF CANCER METASTASES” (University of Cincinnati, priority 2024, published 2025):
“And” between values parts separate entries of the source, which are not always exact repeats. Equal values may be shown once.

Tests used:
[1] = tested on: MIA PaCa-2 cells; assay: Deadherent survival (WST-1, poly-HEMA vs plastic), MIA PaCa-2; type: cell-based, human
Description: (§1) Cells were seeded at a density of 10^4 cells/well in 96-well plates, either uncoated or in poly(2-hydroxyethyl methacrylate) (poly-HEMA) coated wells (3 mg of poly-HEMA in 50 μL 95% ethanol, let dry overnight, then washed twice with PBS, followed by one wash with medium before initiation of the experiment). Drugs were added in triplicates at the indicated concentrations for an incubation time of 48 h. At the 48-h time point, the indicator WST-1 was added to each well at 10% v/v final concentration. At the 60-, 80-, and 120-minute time points, the absorbance was measured at 450 nm using a MRX-TC Revelation plate reader.

[2] = tested on: PANC-1 cells; assay: Soft agar colony formation, PANC-1; type: cell-based, human
Description: (§2) The capability of cells to grow under anchorage-independent conditions is a hallmark of transformation and correlates with tumor progression in vivo. The assay was performed in a 60-mm dish with a bottom layer of 2 mL 0.5% agar (Noble Agar, Sigma) in the culture medium that is designated to the cells. The bottom agar was allowed to be solidified in the biosafety cabinet. Cells were suspended in 0.2% agar for PANC-1 cells, MIA PaCa-2 cells, and B16-F10 cells, but in 0.15% agar for MDA-MB-231 cells and 4T1 cells and then plated (1×10^5 cells/2 mL/dish) on top of the bottom layer. 400 μL culture medium with or without the indicated doses of drug treatment was added to cover the top agar layer every other day over 2 weeks for PANC-1, MIA PaCa-2 cells and over 3 weeks for MDA-MB-231 cells, respectively. The colonies in five microscopic fields (top, bottom, left, right and center) of each dish were photographed. […] Each treatment was repeated thrice.

[3] = tested on: PANC-1 cells; assay: Deadherent survival (WST-1, poly-HEMA vs plastic), PANC-1; type: cell-based, human
Description: as §1

[4] = tested on: MDA-MB-231 cells; assay: Deadherent survival (WST-1, poly-HEMA vs plastic), MDA-MB-231; type: cell-based; settings: for concentration range of significant growth inhibition on poly-HEMA: deadherent cells
Description: as §1

[5] = tested on: MIA PaCa-2 cells; assay: Soft agar colony formation, MIA PaCa-2; type: cell-based, human
Description: as §2

[6] = tested on: MDA-MB-231 cells; assay: Soft agar colony formation, MDA-MB-231; type: cell-based
Description: as §2

[7] = same concentration range that completely suppressed soft agar colony formation

C[S+](C)[O-] [DMSO, dimethyl sulfoxide]
effect on growth when plated on plastic or on poly-HEMA [1, 7]: no effect | soft agar colony frequency ([2]; 0.125%-0.25% (v/v)): without impacting | effect on growth when plated on plastic or on poly-HEMA [3, 7]: no effect | effect on growth when plated on plastic or on poly-HEMA [4, 7]: no effect | soft agar colony frequency ([5]; 0.125%-0.25% (v/v)): without impacting

[NH4+].[NH4+].[SH-].[SH-].[S]=[Mo]=[S] [ammonium tetrathiomolybdate]
inhibition of soft agar colony size ([6]; 0.5 μg/mL): 43% | inhibition of soft agar colony size ([6]; 1 μg/mL): 75% | inhibition of soft agar colony size ([6]; 2 μg/mL): 93% | inhibition of soft agar colony size ([6]; 4 μg/mL): 94%

CCCCNc1cc(C(=O)O)cc(S(N)(=O)=O)c1Oc1ccccc1 [bumetanide]
concentration range suppressing proliferation on poly-HEMA ([1]; deadherent cells): 1 to 5 µg/mL | concentration suppressing both adherent and deadherent cells ([4]; 48 h, WST-1): above 50 μg/mL | concentration range of significant growth inhibition on poly-HEMA ([4]; 48 h, WST-1): 15 to 35 µg/mL | effect on the same cells in the adherent (plated) state ([4]; in the concentration range that significantly inhibits cells on poly-HEMA): without affecting

Cc1ccc(Nc2nccc(N(C)c3ccc4c(C)n(C)nc4c3)n2)cc1S(N)(=O)=O [pazopanib]
concentration at which inhibition of soft agar colony formation reaches significance [2]: 0.25 μM and 0.12 μg/mL | concentration inhibiting growth under both conditions (adherent and deadherent) ([3]; 48 h): Above 2 μg/mL | concentration range increasing adherent cell growth ([3]; adherent cells, 48 h): 0.4 to 2 µg/mL | starting concentration significantly decreasing growth of deadherent cells ([3]; poly-HEMA, 48 h): ≥ 0.2 µg/mL | concentration at which inhibition of soft agar colony formation reaches significance [6]: 0.5 μM and 0.24 μg/mL | concentration range of significant growth inhibition on poly-HEMA ([4]; 48 h, WST-1): 0.4 to 2.0 µg/mL | concentration inhibiting soft agar colony formation [5]: 2.1 μM and 1 μg/mL
